In the assay the test system is Fusarium patch disease. The assay can be described thus: Fusarium patch on turfgrass in British Columbia Canada. The class given is in vivo. As to conditions: for % disease control vs untreated / mean # disease spots/plot: 0.6 kg/ha. The procedure: Creeping bentgrass was naturally inoculated with Fusarium patch disease. Four plots were assessed, and each plot was four square meters of mature turf. Four replicates were used per treatment. […] Azoxystrobin is a broad-spectrum fungicide with a single-site mode of action: it binds very tightly to the Qo site of Complex III in the mitochondrial electron transport chain of fungal pathogens. Thus the disease pest is prevented from generating ATP, so it dies for lack of metabolic energy. Azoxystrobin is itself extracted from certain Eastern European mushrooms reputed for their resistance to disease induced by other fungi. Azoxystrobin, marketed under the brand name of Heritage, is one of the commercial standards used in the management of Fusarium Patch disease on turf grass. It was against this reference that the efficacy of […] in controlling this pathogen was compared and contrasted.
Spray volume was one thousand liters per hectare. Three product applications were made. The interval between applications was 14 days.
Observations (disease symptoms, leaf damage due to product, and grass vigour) were made at the following intervals: • Immediately prior to each application. • Nine days after the last (third) application. • Sixty days after the last (third) application. • Ninety days after the last (third) application.

For the molecule `CO/C=C(/C(=O)OC)c1ccccc1Oc1cc(Oc2ccccc2C#N)ncn1` [Azoxystrobin], for the setting “Spring”, the “% disease control vs untreated” value was found to be 17% and the “mean # disease spots/plot” value turned out to be 10. Besides, under “Winter”, the “% disease control vs untreated” value came out at 31% and the “mean # disease spots/plot” value is on record as 9. Also, the “reduction of disease incidence relative to the water-sprayed inoculated control” value (Azoxystrobin) is given as 15-30%.

Source of the values: patent US9497964B2, “Synergistic activity of peracetic acid and at least one SAR inducer for the control of pathogens in and onto growing plants” (AGRI-NEO INC., priority 2010, dated 2016).
